PubChem BioAssay (NCI)
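Briefly, cells in 96-well plates were exposed to five compound concentrations for 48 h, and endpoints were estimated by linear interpolation. TGI denotes the concentration required for complete inhibition of growth.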 Where a SMILES comes first, the peptide text is derived from it. The star is where a group is joined. Boc = CC(C)(C)OC(=O)*

How the values were obtained:
Assay in all cases: inhibition of tumour cell growth, NCI panel, 48 h
HL-60(TB) leukemia = tested on: HL-60(TB) leukemia
BT-549 breast = tested on: BT-549 breast
NCI-H522 lung = tested on: NCI-H522 lung
COLO 205 colon = tested on: COLO 205 colon
HOP-92 NSCLC = tested on: HOP-92 NSCLC
HCC-2998 colon = tested on: HCC-2998 colon
SNB-75 CNS = tested on: SNB-75 CNS
SR leukemia = tested on: SR leukemia
M14 melanoma = tested on: M14 melanoma
SNB-19 CNS = tested on: SNB-19 CNS
KM12 colon = tested on: KM12 colon
A498 renal = tested on: A498 renal

| SMILES | TGI (HL-60(TB) leukemia) [µM] | TGI (BT-549 breast) [µM] | TGI (NCI-H522 lung) [µM] | TGI (COLO 205 colon) [µM] | TGI (HOP-92 NSCLC) [µM] | TGI (HCC-2998 colon) [µM] | TGI (SNB-75 CNS) [µM] | TGI (SR leukemia) [µM] | TGI (M14 melanoma) [µM] | TGI (SNB-19 CNS) [µM] | TGI (KM12 colon) [µM] | TGI (A498 renal) [µM] |
| --- | --- | --- | --- | --- | --- | --- | --- | --- | --- | --- | --- | --- |
| Cc1ccc(/C=C/C(=O)Oc2ccc(/C=C3\CCC/C(=C\c4ccc(OC(=O)/C=C/c5ccc(C)cc5)cc4)C3=O)cc2)cc1 | > 100 | > 100 | > 100 | > 100 | > 100 | > 100 | 36.3 | 96.4 | > 100 | > 100 | > 100 | – |
| COc1ccc(-n2c(SC(CN3CCOCC3)CN3CCCC3=O)nc3ccccc3c2=O)cc1 (stereo not drawn) | > 100 | > 100 | > 100 | > 100 | > 100 | > 100 | > 100 | > 100 | > 100 | > 100 | > 100 | > 100 |
| C/C(=N\Nc1nc2cc(Cl)ccc2s1)c1ccccn1 | 0.586 | > 61.3 | > 41.1 | > 60.4 | 15.4 | > 80.8 | 31.3 | > 100 | – | 15.6 | > 84.8 | > 22.6 |
| O=C1/C(=C/c2ccc(Cl)cc2)Oc2cc(O)ccc21 | 34.9 | > 100 | 70.7 | > 100 | – | > 100 | > 100 | 47.1 | > 100 | 87.4 | > 100 | – |
| Nn1c(Nc2ccc(S(N)(=O)=O)cc2)nnc(/C=C/c2c(O)ccc3ccccc23)c1=O | 28.6 | 40.4 | 33 | 88.1 | – | 51.9 | – | 25.1 | 69.8 | > 100 | 52.2 | 73.6 |
| O=C(CCBr)N1CCN(C(=O)CCBr)CC1 | 206 | 85.3 | 146 | 225 | 284 | 140 | 180 | 174 | 131 | 198 | 181 | 165 |
| CCC(=O)Nc1cccc(N=Cc2ccc(OC(=O)/C=C\c3ccccc3)cc2)c1 | > 75 | > 75 | > 75 | > 75 | > 75 | > 75 | > 75 | > 75 | > 75 | > 75 | > 75 | > 75 |
| Cn1c(-c2ccc[se]2)ccc1-c1ccc(C=O)[se]1 | > 100 | 65.4 | 35.2 | > 49.4 | > 82.1 | > 53.5 | > 65.1 | > 100 | > 100 | > 100 | > 100 | 3.01 |
| Cc1nn(C(=O)c2ccccc2O)c2c1C(c1ccc(O)cc1O)SC(N)=N2 (stereo not drawn) | > 10 | 8.39 | – | > 10 | > 10 | – | > 10 | > 10 | > 10 | > 10 | > 10 | > 10 |
| O=c1ccc2ccc(CBr)cc2o1 | 3.58 | 8.99 | 2.55 | – | 3.13 | 9.53 | > 100 | 5.05 | 8.92 | 24.8 | – | 29.5 |
| CC(=O)C1=C(C)O[C@@H]2O[C@H](COCc3ccccc3)[C@@H](OCc3ccccc3)[C@H](O)[C@@H]2S1 | 39.7 | 46.4 | 30.9 | 54.5 | 44.2 | – | 77.1 | 46.1 | 39.8 | > 100 | 38.1 | 71 |
| Cc1cc2nc3c(C#N)c4c(c(Nc5ccc(F)cc5)n3c2cc1C)CCC4 | > 100 | > 100 | > 100 | > 100 | – | – | > 100 | > 100 | > 100 | > 100 | > 100 | – |
| COc1cc(CC(C)=O)cc(OC)c1 | 78.5 | > 100 | – | > 100 | > 100 | > 100 | > 100 | 85.4 | > 100 | > 100 | – | > 100 |
| COC(=O)C(Cc1ccccc1)NC(=O)C(CS)NC(=O)OC(C)(C)C (stereo not drawn) (Boc-Cys-Phe-OMe; configuration not given here) | > 100 | > 100 | > 100 | > 100 | > 100 | > 100 | > 100 | > 100 | > 100 | > 100 | > 100 | > 100 |
| Cc1ccc(S(=O)(=O)N2CCC[C@@H]2C(=O)O[C@@H]2CCC3CC=CC32)cc1 (stereo partly drawn) | 64.2 | 44.3 | 50.8 | 31.2 | 44 | > 100 | > 100 | 61 | > 100 | > 100 | > 100 | 81.1 |
| CC(C)C(Nc1ncnc2nc[nH]c12)C(=O)O (stereo not drawn) | > 100 | > 100 | > 100 | > 100 | > 100 | – | > 100 | > 100 | > 100 | > 100 | > 100 | > 100 |
| CCOC(=O)/C=C(/C(=O)OCC)n1cc(C)c(=O)n(Cc2cnnn2COCCOC(C)=O)c1=O | 13.5 | 31.7 | 3.65 | 11.8 | 8.22 | 39.1 | > 67.2 | 39.6 | 31.8 | > 100 | 56.2 | 90 |
| CCN1c2ccccc2NC(=S)c2c1n[nH]c2-c1ccccc1 | 29.9 | > 100 | 52.8 | > 100 | > 100 | 19.3 | > 100 | 67.3 | > 100 | – | 91.1 | – |
| Clc1cc(-c2ccccc2)nc(Nc2nc3ccccc3[nH]2)n1 | > 100 | 52.9 | 33.1 | 51 | 5.25 | – | > 100 | 10.5 | 63 | > 100 | > 100 | 98.3 |
| COC1/C=C/C=C(/C)Cc2cc(O)c(Cl)c(c2)N(C)C(=O)CC(OC(=O)C(C)C)C2(C)OC2C(C)C2CC1(O)NC(=O)O2 (stereo not drawn) | > 100 | 49.4 | < 0.01 | 0.0104 | > 100 | – | 2.08 | > 55.4 | – | > 100 | – | – |

| SMILES | TGI (HL-60(TB) leukemia) [µM] | TGI (BT-549 breast) [µM] | TGI (NCI-H522 lung) [µM] | TGI (COLO 205 colon) [µM] | TGI (HOP-92 NSCLC) [µM] | TGI (HCC-2998 colon) [µM] | TGI (SNB-75 CNS) [µM] | TGI (SR leukemia) [µM] | TGI (M14 melanoma) [µM] | TGI (SNB-19 CNS) [µM] | TGI (KM12 colon) [µM] | TGI (A498 renal) [µM] |
| --- | --- | --- | --- | --- | --- | --- | --- | --- | --- | --- | --- | --- |
| COC(=O)Nc1nc2ccc(S(=O)(=O)Nc3ccccn3)cc2[nH]1 | 34.8 | > 100 | > 100 | > 100 | > 100 | – | 71.1 | 64.1 | > 100 | > 100 | > 100 | > 100 |
| COc1ccc2c(c1)CC[C@@H]1C2CC[C@]2(C)C(=O)N(CCN(C)C)C(=O)CC12 (stereo partly drawn) | > 100 | > 100 | > 100 | > 100 | > 100 | > 100 | > 100 | > 100 | > 100 | > 100 | > 100 | > 100 |
| Cn1c2ccc(F)cc2c2ccc3c(c21)C(=O)C=CC3=O | 2 | > 45 | 4.95 | 21.6 | 15.5 | 67.7 | 97.8 | > 20.2 | 27.3 | > 100 | > 91.9 | > 100 |
| Cc1cc2cc3cc(C)c(N)cc3nc2cc1N | 11 | > 44.5 | 1.7 | 1.98 | 4.89 | – | 6.9 | 1.44 | 21.9 | 3.29 | 2.03 | 1.89 |
| O=c1[nH]c2ccccc2c(O)c1Cc1ccccc1 | > 100 | > 100 | > 100 | > 100 | > 100 | > 100 | > 100 | > 100 | – | > 100 | > 100 | > 100 |
| Clc1ccc(CCNC2(c3cc4ccccc4s3)CCCCC2)cc1Cl | 40.9 | 84.5 | 43.9 | 49.2 | 29.8 | 22.1 | 49.3 | 32.5 | > 100 | > 100 | 61.8 | 39.9 |
| CC(=O)OCC1OC(n2cnc3nc(Br)[nH]c(=O)c32)C(OC(C)=O)C1OC(C)=O (stereo not drawn) | > 100 | > 100 | > 100 | > 100 | > 100 | > 100 | > 100 | > 100 | > 100 | > 100 | > 100 | > 100 |
| CN(C)Cc1c(O)ccc2c1c1c(n2C)C(=O)c2ccccc2C1=O | > 100 | 42.1 | 20.8 | 40 | > 100 | 13.9 | 51.8 | > 100 | > 100 | > 100 | 23.9 | 14.7 |
| O=C1/C(=C/c2ccc(O)cc2)CCCC1CN1CCCCC1 (stereo not drawn) | 0.924 | 6.89 | 2.79 | 4.02 | 3.47 | 17.2 | 22.5 | 4.35 | 8.07 | 31.8 | 4.93 | 20.4 |
| Cc1ncc([N+](=O)[O-])n1CC[N+](C)([O-])CCCCn1ccnc1[N+](=O)[O-] (stereo not drawn) | > 100 | > 100 | > 100 | > 100 | – | – | > 100 | > 100 | > 100 | – | > 100 | > 100 |
| COC(=O)c1c(O)ccc2c1c1cc3ccccc3cc1n2Cc1cc(OC)cc(OC)c1 | 30.6 | > 100 | 0.415 | > 36.1 | > 100 | > 100 | 8.94 | > 100 | > 100 | > 100 | > 27.1 | > 34.3 |
| CC(C)NC(=O)OCc1c(COC(=O)NC(C)C)c(-c2ccc[n+](COC(=O)Cc3ccccc3)c2)n2c1CCC2 | > 100 | 66.6 | 36.2 | > 100 | 46.2 | > 100 | > 100 | > 100 | > 100 | > 100 | > 100 | 44.7 |
| CC(C)(C)NC1=NC(C(F)(F)F)(C(F)(F)F)NC(=O)N1 | 59.6 | > 100 | – | – | > 100 | 79 | > 100 | > 100 | > 100 | > 100 | > 100 | – |
| CC(C)=CC1C(C(=O)Oc2ccccc2C(C)C)C1(C)C (stereo not drawn) | 38.5 | > 100 | 35.5 | – | > 100 | 33.4 | 62 | 61.7 | > 100 | > 100 | 38.9 | 37.1 |
| COC(=O)CNC(=O)C(Cc1ccccc1)NC(=O)c1ccc(-c2ccc(Cl)cc2Cl)o1 (stereo not drawn) | 41.2 | > 100 | 43.3 | 30.2 | 39.1 | – | > 100 | 36 | > 100 | > 100 | 91.2 | 38.8 |
| CSc1ncc2c(n1)-c1ccccc1OC2N1CCOCC1 (stereo not drawn) | 83.9 | > 100 | > 100 | > 100 | > 100 | – | > 100 | > 100 | > 100 | > 100 | > 100 | 56.7 |
| CC(=O)OCC1OC(N2C(=O)NC(=O)C3C=C4CCCCC4=CC32)CC1OC(C)=O (stereo not drawn) | > 100 | > 100 | > 100 | – | > 100 | – | > 100 | > 100 | > 100 | > 100 | > 100 | > 100 |
| Cc1nnc(N)nc1/C=C\c1ccc(Cl)cc1Cl | 53 | > 100 | 57.5 | 55.8 | > 100 | 42.8 | – | > 100 | 85.3 | > 100 | 32.6 | > 100 |
| O=C1c2cc(I)ccc2N2CCN=C2N1Cc1ccccc1 | > 100 | > 100 | > 100 | > 100 | 80.1 | – | 39.7 | > 100 | > 100 | > 100 | > 100 | 94.1 |
